Values after ≈ are worked out from the molar mass of the structure shown.
Tests used:
Test in all cases: ≥ marks a high value that may be exact or a test limit, other limits are often not marked, values filed in µg/mL are converted to µM
[1] = tested on: Candida albicans ATCC 90028
[2] = tested on: Staphylococcus aureus NCTC 8325
[3] = tested on: Escherichia coli ATCC 25922
[4] = tested on: Staphylococcus aureus ATCC 6538
[5] = tested on: Escherichia coli ATCC 8739
[6] = tested on: Bacillus subtilis ATCC 6633
[7] = tested on: Staphylococcus aureus ATCC 43300
[8] = tested on: Staphylococcus aureus ATCC 25923
Escherichia coli BL21 = tested on: Escherichia coli BL21
[9] = tested on: Bacillus subtilis KCTC 3068
[10] = tested on: Escherichia coli KCTC 1682
[11] = tested on: Staphylococcus aureus KCTC 1621
[12] = tested on: Salmonella typhimurium KCTC 1926

Row | MIC [1] | MIC [2] | MIC [3] | MIC [4] | MIC [5] | MIC [6] | other results | Compound
1 | 3 µM (≈ 6.37 µg/mL) | 3 µM (≈ 6.37 µg/mL) | 13 µM (≈ 27.6 µg/mL) | – | – | – | – | CC[C@H](C)[C@@H]1NC(=O)[C@H](C)NC(=O)[C@@H](NC(=O)[C@@H](NC(=O)[C@@H](NC(=O)[C@H](CCCCN)NC(=O)[C@H](C)NC(=O)[C@H](C)NC(=O)[C@H](CCSC)NC(=O)CNC(=O)[C@H](C)NC(=O)[C@@H](NC(=O)[C@@H](NC(=O)[C@@H]2CCCN2C(=O)[C@H](Cc2ccccc2)NC(=O)[C@@H](N)Cc2ccccc2)[C@@H](C)CC)[C@@H](C)CC)C(C)C)[C@@H](C)CC)CSSC[C@@H](C(=O)O)NC(=O)[C@H](CCCCN)NC(=O)[C@H](CCCCN)NC(=O)[C@H]([C@@H](C)O)NC1=O [FFPIIAGMAAKVICAITKKC]
2 | – | 15 µM (≈ 21 µg/mL) | 125 µM (≈ 175 µg/mL) | – | – | – | – | CC[C@H](C)[C@H](NC(=O)[C@H](CC(C)C)NC(=O)[C@H](CCCN=C(N)N)NC(=O)CNC(=O)[C@@H](NC(=O)[C@@H](NC(=O)[C@@H]1CCCN1C(=O)[C@H](CC(C)C)NC(=O)[C@@H](N)Cc1ccccc1)[C@@H](C)CC)C(C)C)C(=O)N[C@@H](CO)C(=O)NCC(=O)N[C@@H](CC(C)C)C(=O)N[C@@H](CC(C)C)C(N)=O [FLPIVGRLISGLL]
3 | ≥ 100 µM | – | – | 25 µM (≈ 75.9 µg/mL) | ≥ 100 µM | 12.5 µM (≈ 38 µg/mL) | MIC [7]: 100 µM (≈ 304 µg/mL) | CC[C@H](C)[C@@H]1NC(=O)[C@H](CCCCN)NC(=O)[C@@H](NC(=O)[C@H](CCCCN)NC(=O)[C@H](CC(C)C)NC(=O)[C@H](CCCCN)NC(=O)[C@H](CC(=O)O)NC(=O)[C@H](CC(C)C)NC(=O)[C@H](CC(C)C)NC(=O)[C@@H](NC(=O)[C@@H](NC(=O)[C@H](C)NC(=O)[C@@H](NC(=O)[C@H](CC(N)=O)NC(=O)[C@H](CCCCN)NC(=O)[C@H](C)NC(=O)[C@@H](NC(=O)[C@H](CC(N)=O)NC(=O)[C@H](CCCCN)NC(=O)[C@H](C)NC(=O)[C@@H](NC(=O)[C@H](CC(=O)O)NC(=O)[C@H](CCSC)NC(=O)[C@H](Cc2ccccc2)NC(=O)CN)[C@@H](C)O)C(C)C)C(C)C)C(C)C)[C@@H](C)O)CSSC[C@@H](C(=O)O)NC(=O)CNC(=O)CNC(=O)[C@H]([C@@H](C)O)NC1=O [GFMDTAKNVAKNVAVTLLDKLKCKITGGC]
4 | – | 12 µM (≈ 59.2 µg/mL) | 1 µM (≈ 4.93 µg/mL) | – | – | – | – | CC[C@H](C)[C@H](NC(=O)CNC(=O)[C@@H](NC(=O)[C@H](CCCN=C(N)N)NC(=O)[C@@H](NC(=O)[C@H](CC(C)C)NC(=O)[C@H](CC(=O)O)NC(=O)[C@H](CCSC)NC(=O)CNC(=O)[C@H](C)NC(=O)[C@H](CCC(=O)O)NC(=O)[C@H](CCCCN)NC(=O)CNC(=O)[C@@H](NC(=O)[C@@H](NC(=O)[C@H](CCCCN)NC(=O)[C@@H](NC(=O)[C@@H](NC(=O)[C@H](CC(N)=O)NC(=O)[C@H](Cc1ccccc1)NC(=O)[C@@H](NC(=O)CNC(=O)[C@@H](NC(=O)[C@H](CCCCN)NC(=O)[C@H](C)NC(=O)[C@H](CCCCN)NC(=O)[C@H](CCCCN)NC(=O)[C@H](CCCCN)NC(=O)[C@H](CC(N)=O)NC(=O)[C@@H](NC(=O)[C@H](CCCCN)NC(=O)[C@@H]1CCCN1C(=O)[C@H](Cc1ccccc1)NC(=O)[C@H](CC(C)C)NC(=O)CN)[C@@H](C)CC)[C@@H](C)O)C(C)C)[C@@H](C)CC)[C@@H](C)CC)[C@@H](C)O)C(C)C)[C@@H](C)CC)[C@@H](C)O)C(=O)N[C@@H](CC(=O)O)C(=O)N[C@H](C(=O)N[C@H](C(=O)NCC(=O)N[C@H]1CSSC[C@@H](C(=O)O)NC(=O)[C@H](CCC(=O)O)NC(=O)CNC(=O)[C@H](CCCCN)NC(=O)[C@H]([C@@H](C)CC)NC(=O)[C@H](CCCCN)NC1=O)[C@@H](C)CC)[C@@H](C)O [GLFPKINKKKAKTGVFNIIKTVGKEAGMDLIRTGIDTIGCKIKGEC]
5 | – | – | – | – | ≥ 138 µM | – | MIC [8]: > 138 µM | CSCC[C@H](N)C(=O)N[C@@H](CO)C(=O)N[C@@H](C)C(=O)N[C@@H](CCC(=O)O)C(=O)N[C@H](C(=O)N[C@H](C(=O)N[C@H](C(=O)N[C@@H](CCCCN)C(=O)N[C@@H](CCCCN)C(=O)N[C@H](C(=O)N[C@@H](CC(=O)O)C(=O)NCC(=O)N[C@@H](CC(=O)O)C(=O)N[C@@H](C)C(=O)N[C@@H](CC(C)C)C(=O)N[C@@H](CCC(=O)O)C(=O)N[C@@H](CC(C)C)C(=O)NCC(=O)O)C(C)C)C(C)C)C(C)C)C(C)C [MSAEVVVKKVDGDALELG]
6 | – | – | – | – | 14.7 µM (≈ 32 µg/mL) | – | MIC [8]: > 117 µM | CC[C@H](C)[C@H](NC(=O)[C@H](CCCCN)NC(=O)[C@H](C)NC(=O)[C@@H](NC(=O)[C@@H](NC(=O)[C@H](CCCN=C(N)N)NC(=O)[C@H](C)NC(=O)[C@H](CC(C)C)NC(=O)[C@@H](NC(=O)[C@H](CCCCN)NC(=O)[C@H](C)NC(=O)[C@H](C)NC(=O)[C@H](Cc1ccccc1)NC(=O)[C@H](CC(C)C)NC(=O)[C@H](CCCCN)NC(=O)[C@H](CCCCN)NC(=O)[C@H](CCSC)NC(=O)[C@@H]1CCCN1)[C@@H](C)CC)C(C)C)C(C)C)C(=O)N[C@@H](Cc1c[nH]c2ccccc12)C(=O)O [PMKKLFAAKILARVVAKIW]
7 | ≥ 50 µM | – | – | 3.1 µM (≈ 15.1 µg/mL) | 3.1 µM (≈ 15.1 µg/mL) | 12.5 µM (≈ 61 µg/mL) | MIC [7]: 12.5 µM (≈ 61 µg/mL) | CC[C@H](C)[C@H](NC(=O)CNC(=O)[C@H](CCCCN)NC(=O)[C@H](CC(C)C)NC(=O)[C@@H](NC(=O)[C@H](CC(C)C)NC(=O)[C@H](CC(N)=O)NC(=O)[C@H](CCCCN)NC(=O)[C@@H](NC(=O)[C@H](C)NC(=O)[C@H](CCCCN)NC(=O)CNC(=O)CNC(=O)[C@@H](NC(=O)[C@H](CCCCN)NC(=O)[C@H](CO)NC(=O)[C@H](Cc1ccccc1)NC(=O)[C@@H](NC(=O)[C@@H](N)CCCN=C(N)N)[C@@H](C)CC)[C@@H](C)CC)[C@@H](C)CC)[C@@H](C)CC)C(=O)N[C@@H](CCCCN)C(=O)N[C@@H](CC(N)=O)C(=O)N[C@H](C(=O)NCC(=O)N[C@@H](CCCCN)C(=O)N[C@@H](CCC(=O)O)C(=O)N[C@H](C(=O)NCC(=O)N[C@@H](CCSC)C(=O)N[C@@H](CC(=O)O)C(=O)N[C@H](C(=O)N[C@H](C(=O)N[C@@H](CCCN=C(N)N)C(=O)N[C@H](C(=O)NCC(=O)N[C@H](C(=O)N[C@@H](CC(=O)O)C(=O)N[C@H](C(=O)N[C@@H](C)C(=O)NCC(=O)N[C@H]1CSSC[C@@H](C(=O)O)NC(=O)[C@H](CCC(=O)O)NC(=O)CNC(=O)[C@H](CCCCN)NC(=O)[C@H]([C@@H](C)CC)NC(=O)[C@H](CCCCN)NC1=O)C(C)C)[C@@H](C)CC)[C@@H](C)O)[C@@H](C)CC)C(C)C)C(C)C)[C@@H](C)CC [RIFSKIGGKAIKNLILKGIKNIGKEVGMDVIRTGIDVAGCKIKGEC]
8 | – | – | – | 6.3 µM (≈ 21.6 µg/mL) | 12.5 µM (≈ 42.9 µg/mL) | 25 µM (≈ 85.8 µg/mL) | – | CC[C@H](C)[C@H](NC(=O)[C@H](C)NC(=O)[C@H](CC(C)C)NC(=O)[C@H](CC(=O)O)NC(=O)[C@H](CCCCN)NC(=O)[C@H](Cc1ccccc1)NC(=O)[C@@H](NC(=O)[C@@H](NC(=O)[C@H](CC(C)C)NC(=O)[C@H](Cc1ccccc1)NC(=O)[C@@H](N)CO)[C@@H](C)O)[C@@H](C)O)C(=O)N[C@@H](CCCCN)C(=O)N[C@@H](C)C(=O)N[C@@H](C)C(=O)N[C@@H](CCCCN)C(=O)N[C@@H](CO)C(=O)N[C@@H](C)C(=O)NCC(=O)N[C@@H](CCC(N)=O)C(=O)N[C@@H](CO)C(=O)N[C@H](C(=O)N[C@@H](CC(C)C)C(=O)N[C@@H](CO)C(=O)N[C@H](C(=O)N[C@@H](CC(C)C)C(=O)N[C@@H](CO)C(=O)N[C@H]1CSSC[C@@H](C(=O)O)NC(=O)[C@H]([C@@H](C)O)NC(=O)[C@H](CC(N)=O)NC(=O)[C@H](CO)NC(=O)[C@H](CC(C)C)NC(=O)[C@H](CCCCN)NC1=O)[C@@H](C)O)C(C)C [SFLTTFKDLAIKAAKSAGQSVLSTLSCKLSNTC]
9 | – | – | – | – | – | – | MIC (Escherichia coli BL21): ≥ 128 µM | CC[C@H](C)[C@H](NC(=O)[C@@H]1CCCN1C(=O)[C@H](CC(C)C)NC(=O)[C@H](Cc1ccc(O)cc1)NC(=O)[C@H](Cc1cnc[nH]1)NC(=O)[C@H](C)NC(=O)CNC(=O)[C@H](C)NC(=O)[C@@H](NC(=O)[C@H](C)NC(=O)[C@H](CS)NC(=O)[C@H](C)NC(=O)[C@@H]1CCCN1C(=O)CNC(=O)[C@H](CS)NC(=O)[C@@H](NC(=O)[C@@H](NC(=O)CNC(=O)CNC(=O)[C@@H](N)C(C)C)[C@@H](C)O)[C@@H](C)CC)C(C)C)C(=O)O [VGGTICGPACAVAGAHYLPI]
10 | – | – | – | – | – | – | MIC [9]: 8.41 µM (≈ 16 µg/mL); MIC [10]: ≥ 33.6 µM; MIC [11]: 8.41 µM (≈ 16 µg/mL); MIC [12]: 16.8 µM (≈ 32 µg/mL) | CC(C)C[C@H](NC(=O)[C@H](Cc1ccccc1)NC(=O)[C@@H]1CCCN1C(=O)[C@H](Cc1c[nH]c2ccccc12)NC(=O)[C@H](Cc1c[nH]c2ccccc12)NC(=O)[C@H](Cc1c[nH]c2ccccc12)NC(=O)[C@@H]1CCCN1C(=O)[C@H](Cc1ccccc1)NC(=O)[C@H](CCCNC(=N)N)NC(=O)[C@H](CCCNC(=N)N)NC(=O)[C@@H](N)C(C)C)C(=O)N[C@@H](CCCNC(=N)N)C(=O)N[C@@H](CCCNC(=N)N)C(=O)O [VRRFPWWWPFLRR]
